The values that follow come from patent publication US8680339B2, “Herbicides” (Syngenta Limited, priority 2009, dated 2014).

What all share (format): in vivo
Test [1] concerns Alopecurus myosuroides (ALOMY). The test can be described thus: Pre-emergence herbicidal activity, glasshouse pot test. Conditions: rate 250 g/ha, evaluated after 13 days, 100=total damage to plant, 0=no damage to plant; for pest or weed control at 250 g/ha: Alopecurus myosuroides, 312 h. The protocol: (§1) Seeds of a variety of test species were sown in standard soil in pots. After cultivation for one day (pre-emergence) or after 8 days cultivation (post-emergence) under controlled conditions in a glasshouse (at 24/16° C., day/night; 14 hours light; 65% humidity), the plants were sprayed with an aqueous spray solution derived from the formulation of the technical active ingredient in acetone/water (50:50) solution containing 0.5% Tween 20 (polyoxyethelyene sorbitan monolaurate, CAS RN 9005-64-5). The test plants were then grown in a glasshouse under controlled conditions in a glasshouse (at 24/16° C., day/night; 14 hours light; 65% humidity) and watered twice daily. After 13 days for pre and post-emergence, the test was evaluated (100=total damage to plant; 0=no damage to plant). Test Plants: Lolium perenne (LOLPE), Alopecurus myosuroides (ALOMY), Echinochloa crus-galli (ECHCG), and Avena fatua (AVEFA). Pre-Emergence Activity

Test [2] concerns Avena fatua (AVEFA). Described as above. Conditions: rate 250 g/ha, evaluated after 13 days, 100=total damage to plant, 0=no damage to plant; for pest or weed control at 250 g/ha: Avena fatua, 312 h. The protocol: as §1
The subject of test [3] is Echinochloa crus-galli (ECHCG). The description is as above. Conditions: rate 250 g/ha, evaluated after 13 days, 100=total damage to plant, 0=no damage to plant; for pest or weed control at 250 g/ha: Echinochloa crus-galli, 312 h. The protocol: as §1
In test [4] the test system is Lolium perenne (LOLPE). The description is as above. Conditions: rate 250 g/ha, evaluated after 13 days, 100=total damage to plant, 0=no damage to plant; for pest or weed control at 250 g/ha: Lolium perenne, 312 h. The protocol:
as §1

The test system of test [5] is Alopecurus myosuroides (ALOMY). The test can be described thus: Post-emergence herbicidal activity, glasshouse pot test. The following applies: rate 250 g/ha, evaluated after 13 days, 100=total damage to plant, 0=no damage to plant; for pest or weed control at 250 g/ha: Alopecurus myosuroides, 312 h. The protocol: as §1, with “Post-Emergence” for “Pre-Emergence”
Test [6] deals with Avena fatua (AVEFA). The test is described as above. The following applies: rate 250 g/ha, evaluated after 13 days, 100=total damage to plant, 0=no damage to plant; for pest or weed control at 250 g/ha: Avena fatua, 312 h. The protocol:
as §1, with “Post-Emergence” for “Pre-Emergence”

The subject of test [7] is Echinochloa crus-galli (ECHCG). The test is described as above. Conditions: rate 250 g/ha, evaluated after 13 days, 100=total damage to plant, 0=no damage to plant; for pest or weed control at 250 g/ha: Echinochloa crus-galli, 312 h. The protocol:
as §1, with “Post-Emergence” for “Pre-Emergence”

The subject of test [8] is Lolium perenne (LOLPE). The description is as above. Conditions: rate 250 g/ha, evaluated after 13 days, 100=total damage to plant, 0=no damage to plant; for pest or weed control at 250 g/ha: Lolium perenne, 312 h. How it is done: as §1, with “Post-Emergence” for “Pre-Emergence”

For orientation: pest or weed control means how far the test organism was held down. The low end stands for weak suppression, the high end for strong suppression. In the case of `Cc1cc(Oc2cnc3cc(Cl)ccc3n2)cc(C)c1C1=C(O)[C@H]2[C@@H](C1=O)[C@@H]1CC[C@H]2O1` [Compound A-22], the pest or weed control at 250 g/ha in test [1] is 50%; in test [3], 90%; in test [4], 80%; in test [6], 100%; in test [7], 90%. In addition, the “damage to plant AVEFA” value in test [2] was 50. The “damage to plant ALOMY” value in test [5] is given as 100. Besides, the “damage to plant LOLPE” value in test [8] is listed as 100.

As to `Cc1cc(Oc2cnc3cc(Cl)ccc3n2)cc(C)c1C1=C(O)[C@H]2[C@@H](C1=O)[C@@H]1CC[C@H]2O1` [Compound A-23], the “damage to plant ALOMY” value in test [1] is recorded as 30; in test [5] it was 60. Besides, the “damage to plant AVEFA” value in test [2] came out at 20; in test [6], 80. For the same compound, the results for the “damage to plant ECHCG” value in test [3] and in test [7] were 90 and 70, respectively. The “damage to plant LOLPE” value in test [4] came out at 90; in test [8] it was 50.

As for `Cc1cc(Oc2ncc(Cl)cc2F)cc(C)c1C1=C(O)[C@H]2[C@@H](C1=O)[C@@H]1CC[C@H]2O1` [Compound A-24], the “damage to plant ALOMY” value in test [1] was 100. The “damage to plant AVEFA” value in test [2] is recorded as 60. The pest or weed control at 250 g/ha was 70% in test [3]; 80% in test [4]; 80% in test [5]; 80% in test [6]; 90% in test [7]; 90% in test [8].

Turning to `Cc1cc(Oc2ncc(Cl)cc2F)cc(C)c1C1=C(O)[C@H]2[C@@H](C1=O)[C@@H]1CC[C@H]2O1` [Compound A-25], the “damage to plant ALOMY” value in test [1] is 40; in test [5], 90. For the same compound, the “damage to plant AVEFA” value worked out at 30 in test [2] and 70 in test [6]. The “damage to plant ECHCG” value in test [3] and in test [7] was 70 in each case. The “damage to plant LOLPE” value in test [4] and in test [8] was 80 throughout.

As for `Cc1cc(Oc2ncc(Cl)cc2Cl)cc(C)c1C1=C(O)[C@H]2[C@@H](C1=O)[C@@H]1CC[C@H]2O1` [Compound A-26], the pest or weed control at 250 g/ha in test [1] worked out at 90%; in test [2], 60%; in test [3] it was 100%; in test [4], 100%; in test [5], 100%; in test [6] it was 70%. The pest or weed control at 250 g/ha in test [7] was determined as 90%; in test [8], 100%.

With `CCc1cc(Oc2ccc(Cl)cc2)ccc1C1=C(O)CCC1=O` [Compound A-32, 2-[4-(4-chlorophenoxy)-2-ethylphenyl]cyclopentane-1,3-dione], the pest or weed control at 250 g/ha in test [1] was 0%; in test [2], 0%; in test [3], 50%; in test [4], 10%; in test [5], 0%; in test [6], 0%. The pest or weed control at 250 g/ha in test [7] and in test [8] was 0% throughout.

As for `Cc1cc(Oc2ccc(Cl)cc2)cc(C)c1C1=C(O)CC(CC2CCOCC2)C1=O` (stereo not drawn) [Compound A-34], the pest or weed control at 250 g/ha in test [1] worked out at 80%; in test [2], 30%; in test [3] it was 70%; in test [4] it was 70%; in test [5], 80%; in test [6] it was 60%. Moreover, the pest or weed control at 250 g/ha came to 80% in test [7] and 70% in test [8].

With `CCc1cc(Oc2ccc3cc(Cl)ccc3n2)ccc1C1=C(O)CCC1=O` [Compound A-35], the pest or weed control at 250 g/ha in test [1] was 0%; in test [2], 0%; in test [3], 70%; in test [4], 0%; in test [5], 0%; in test [6], 0%. The pest or weed control at 250 g/ha in test [7] was found to be 80%; in test [8], 20%.

On to `Cc1cc(Oc2ccc3cc(Cl)ccc3n2)cc(C)c1C1=C(O)CC(CC2CCOCC2)C1=O` (stereo not drawn) [Compound A-37, 2-[4-(6-chloroquinolin-2-yloxy)-2,6-dimethylphenyl]-4-(tetrahydropyran-4-ylmethyl)cyclopentane-1,3-dione], for which the pest or weed control at 250 g/ha in test [1] is 10%; in test [2] it was 10%; in test [3] it was 90%; in test [4] it was 0%; in test [5], 50%; in test [6] it was 60%. The results for the pest or weed control at 250 g/ha in test [7] and in test [8] were 80% and 40%, respectively.

Take `CCc1cc(Oc2ccc3cc(Cl)ccc3n2)ccc1C1=C(O)[C@H]2[C@@H](C1=O)[C@@H]1CC[C@H]2O1` [Compound A-38]: the pest or weed control at 250 g/ha in test [1] was 80%; in test [2] it was 0%; in test [3], 100%; in test [4], 70%; in test [5], 90%; in test [6] it was 80%. In addition, the pest or weed control at 250 g/ha worked out at 100% in test [7] and 80% in test [8].

For `Cc1cc(Oc2ccc(Cl)cc2)cc(C)c1C1=C(OC(=O)C(C)(C)C)[C@H]2[C@@H](C1=O)[C@@H]1CC[C@H]2O1` [Compound P-3], the pest or weed control at 250 g/ha in test [1] stood at 100%; in test [2] it was 90%; in test [3] it was 100%; in test [4] it was 90%; in test [5] it was 90%; in test [6], 100%. Also, the pest or weed control at 250 g/ha in test [7] and in test [8] was 100% each time.

On to `Cc1cc(Oc2ccc(F)cc2)cc(C)c1C1=C(OC(=O)C(C)(C)C)[C@H]2[C@@H](C1=O)[C@@H]1CC[C@H]2O1` [Compound P-4], for which the pest or weed control at 250 g/ha in test [1] came to 80%; in test [2], 70%; in test [3], 100%; in test [4], 90%; in test [5], 90%; in test [6] it was 60%. Further, the pest or weed control at 250 g/ha is 90% in test [7] and 70% in test [8].
